Test results taken from patent US11407689B2, “Black urea enhanced efficiency controllable release fertilizer compositions” (priority 2018, dated 2022).

Assays:
rice = assay: Greenhouse Rice Test (rice grown in 5-gallon buckets, chlorophyll by SPAD 501 meter and rough rice yield); format: in vivo; settings: for Average of Chlorophyll Measurements: relative chlorophyll in leaves, SPAD 501 meter
Protocol: This test was conducted to compare the use of Chip Urea and Black Chip Urea to the use of ordinary granular urea for growing rice. Chip Urea, Black Chip Urea, and plain urea fertilizers were tested at Applied Chemical Technology to fertilize rice grown in 5-gallon buckets in a greenhouse. The rice was fertilized following practices used to grow rice commercially in Arkansas. These practices include fertilizing with starter fertilizers and then dry seeding the rice. Nitrogen is then applied at flooding and again when the plants enter the reproductive phase. The fertilizer is flooded into the soil when the rice plants reach the 4-leaf stage by applying the granular fertilizer to the surface and then the applying the floodwater.
The rice for the tests was grown in a climate controlled greenhouse. […] Each fertilizer was tested with five replicates placed randomly on the table. The codes for labeling the tests are given in Example 5. The bucket placement for the tests is shown in Example 6.
Top soil was purchased from Shoals Dirt near Florence, Ala. This soil was mixed and sieved using a 3 MG screen. Soil samples were taken and sent for testing to the University of Arkansas. Each five gallon bucket was filled with 39 pounds of soil and placed on the greenhouse table with no space between the buckets.
Based on the soil test results, each bucket received pre-fertilizer that included urea, triple super phosphate (TSP), potassium chloride, Epsom salts (magnesium sulfate heptahydrate), and zinc sulfate.
The TSP fertilizer was applied first. This was done by weighing out 3.58 g of TSP for each bucket and then mixing the TSP thoroughly into the top 3-4 inches of soil.
Next, the remaining starter fertilizer was applied to each bucket by making a solution of the urea, potassium chloride, zinc sulfate, and Epson salts according to the values presented in Table A of Example 5. This solution was made so that the amount of the solution needed to supply the correct amount of each nutrient to each bucket was found in 200 mL of the solution. The 200 mL of solution was then evenly poured over the surface of the soil in each bucket.
The pre-fertilizer was applied. The rice was then planted by placing 10-15 seeds on the surface of the soil and using a pencil to push the rice seed ¾ inch beneath the soil surface. The hole was filled with sand. After planting, the soil moisture was monitored. If the buckets needed to be watered, then all of the buckets are watered with the same amount of water by volume. For all of the watering throughout the tests, rain water was used. […]
The fertilizers used were products made at ACT in the pilot plant tests. […] The amounts of each fertilizer were based on the nitrogen measured in the fertilizer by LECO so that every bucket received the same amount of nitrogen. […]

[1] = system: arginine production in plants; settings: cited from earlier work

| Structure (SMILES) | Average of Chlorophyll Measurements (rice; July 19, 30 readings per bucket, five replicates) | Average of Chlorophyll Measurements (rice; September 21 (Friday before harvest)) | % Increase in Yield (rice; average yield per bucket versus plain urea) [%] | Average Rough Rice Yield per Bucket, Average Dry Weight at Harvest (rice; panicles dried at 50° C. for two days, same weight of N per bucket) [g] | Effectiveness in stimulating arginine production relative to urea [1] [times] |
| --- | --- | --- | --- | --- | --- |
| NC(N)=O [Urea, urea] | 46.8 | 36.4 | 0.0 | 64.42 | – |
| N#CN [acid cyanamide ion] | – | – | – | – | 20 |
